From ChEMBL document CHEMBL3576770, “Spirotetronate polyketides as leads in drug discovery” (J Nat Prod, 2015)
Each block holds one molecule with its values, some of them ahead of it.

What was measured:
[1] = test system: P388; assay: Cytotoxicity against mouse P388 cells; format: functional, cell-based
[2] = test system: L1210; assay: Cytotoxicity against mouse L1210 cells; format: functional, cell-based
[3] = Antitumor activity against mouse EAC implanted in ddy-SLC mouse at 2.5 mg/kg, ip qd administered day 1 to 5 starting 24 hrs post tumor implantation; format: functional, Ehrlich
[4] = Toxicity in ip dosed ICR mouse implanted with mouse EAC; format: organism-based; settings: in vivo
[5] = molecular target: T1, Gastrin/cholecystokinin type B receptor (Rattus norvegicus, UniProt P30553); assay: Inhibition of CCK-B receptor in rat cerebral cortex; format: tissue-based
T1 sequence (P30553 whole entry): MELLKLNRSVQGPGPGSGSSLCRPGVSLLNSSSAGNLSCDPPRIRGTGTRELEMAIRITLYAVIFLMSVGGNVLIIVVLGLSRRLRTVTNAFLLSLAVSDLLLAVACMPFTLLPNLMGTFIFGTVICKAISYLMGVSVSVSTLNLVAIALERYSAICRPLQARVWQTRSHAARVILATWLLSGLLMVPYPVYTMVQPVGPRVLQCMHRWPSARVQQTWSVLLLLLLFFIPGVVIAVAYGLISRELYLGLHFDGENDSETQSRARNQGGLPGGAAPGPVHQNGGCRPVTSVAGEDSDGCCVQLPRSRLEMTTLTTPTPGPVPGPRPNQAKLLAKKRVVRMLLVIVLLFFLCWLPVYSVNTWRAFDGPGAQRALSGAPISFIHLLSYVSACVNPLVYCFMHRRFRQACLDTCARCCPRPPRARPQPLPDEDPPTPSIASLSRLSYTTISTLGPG

[6] = test system: Staphylococcus aureus; assay: Antimicrobial activity against methicillin-resistant Staphylococcus aureus assessed as inhibition of microbial proliferation; format: functional
[7] = test system: B16; assay: Cytotoxicity against mouse B16 cells; format: functional
[8] = Inhibition of gastric ATPase (unknown origin); format: tissue-based, Homo sapiens, Stomach

SMILES: C=C1C(=O)[C@]2(C)C(=O)O[C@@]34C[C@H](C)C(C(=O)O)=C[C@@H]3CCC[C@@H](C)C[C@@H](C)[C@H]1OC24
IC50 ([1]; Mus musculus, P388): 0.089 µM
IC50 [2]: 0.216 µM
T/C [3]: 145.7%

SMILES: COc1ccc(Cl)c(C)c1C(=O)O[C@@H]1C[C@H](O[C@H]2[C@H](C)O[C@@H](O[C@H]3CCC[C@@H]4[C@@H]3C=C[C@H]3CCCC/C=C/[C@@H]5C=C(C(=O)O)[C@H](C)C[C@]56OC(=O)C(=C6O)OC(=O)[C@@]43C)C(O)[C@@H]2O)O[C@H](C)[C@H]1O (stereo not given in full)
LD50 [4]: 295 mg/kg

IC50 [5]: 0.0036 µM
SMILES: CC1=CC2C/C=C/C=C/CC(O)C/C=C/CC(C)C3C(CSC3C(=O)C(=O)O)C(=O)C3=C(O)C2(CC1C)OC3=O (stereo not given)

SMILES: C[C@@H]1C[C@H](C)C(=O)/C=C/[C@@H]2[C@@H](O)[C@H]3OC4=C(C(=O)O[C@@]42C[C@H]3C)C1=O
MIC ([6]; Staphylococcus aureus, read-out: MIC): 5.2 mg/L

SMILES: COC(=O)N[C@@H]1[C@H](C)O[C@@H](O[C@H]2C/C=C(\C)[C@@H]3C=C[C@@H]4[C@@H](O[C@H]5C[C@H](O[C@@H]6CC[C@H](C)[C@@H](O[C@H]7C[C@H](O)[C@H](O[C@@H]8CC[C@H](O)[C@@H](C)O8)[C@@H](C)O7)O6)[C@H](OC(C)=O)[C@@H](C)O5)[C@@H](C)C[C@H](C)[C@H]4[C@]3(C)C(=O)C3=C(O)[C@@]4(CC(C=O)=C[C@H](O)[C@H]4/C=C/2C)OC3)C[C@@]1(C)N
INH [1]: 6.25 µg/mL
INH [7]: 25 µg/mL

IC50 [8]: 0.5 µM
SMILES: CC[C@@H]1C[C@]23OC(=O)C(=C2O)[C@@H](O)[C@@H](C)C[C@H](C)CCC[C@]3(C)C=C1C

SMILES: C[C@@H]1C[C@H](C)C(=O)/C=C/[C@@H]2[C@@H](O)[C@H]3OC4=C(C(=O)O[C@@]42C[C@H]3C)C1=O (single isomer, unassigned; atropisomer)
MIC [6]: 3.5 mg/L
